Patent US20050054531A1, “N-(phosphonomethyl) glycine (glyphosate) salt, a preparation process thereof, a concentrate composition and a phytotoxic formulation comprising it, and a method to combat weeds in a crop with a formulation thereto” (priority 2003, published 2005)
“Also recorded” adds a separate entry of the source.

Key:
[1] = stated in the formulation process; cited from earlier work
[2] = test system: Bermuda grass and Nutgrass; experiment: Control of soy weeds (Example 6): Bermuda grass and Nutgrass; format: in vivo, Cynodon dactylon, Cyperus rotundus
Text: (§1) OBJECTIVE: The subject of the present assay comprises the assessment of different Glyphosate formulations on annual and perennial weeds in a resistant soy crop.
(§2) Crop data were as follows: • Species: Soya • Variety: A-6443 • See-planting time: Second. • Preceding crop: Wheat • Density of seeds planted: 33 grains/m^2 • Density of grown plants: 28 pl/m^2 • Space between furrows: 0.52 m. • Culture system: Direct seed-planting. • Phenologic status on application: R-4/5
(§3) Random blocks design was used, with four repetitions per treatment. The size of the parcels were: 4 m wide per 15 m long (60 m^2), totaling 240 m^2 per treatment.
(§4) The product was applied with a carbon dioxide (CO2) hand backpack, provided with four tips separated by 0.50 m each, with a plain fan-type 110 O2 pastille. Applied volume was of 110 1/ha, at a pressure of 45 lb/cm^2
(§5) The assessments were carried out visually by comparison with control non-applied parcels, and at 5, 10, 15, and 25 days after the application date en each case, where the intervals between each application from the beginning of the treatment were 5, 5, and 10 days, respectively.
(§6) Variance analysis (ANOVA) and Duncan Test were performed with the results obtained, in order to detect mean differences.

Bermuda grass [3] = experiment: Weed control in apple culture (Example 5): Bermuda grass; format: in vivo, Cynodon dactylon; conditions: 4 l/ha (1,440 g/ha 100% acid)
Experimental: (§7) Observations: Only one dose of each product was tested in three repetitions, on areas of 2 m×8 m=16 m^2.

Apple, Red Delicious = experiment: Phytotoxicity to the fruit tree (Example 5); format: in vivo; conditions: apple culture; 4 l/ha
Experimental: Variety: Hybrid. Red Delicious.
Phenologic status: with fruits of 2 cm diameter.
as §7

Sunchillo (White aster) = experiment: Weed control in apple culture (Example 5): Sunchillo; format: in vivo, Wedelia glauca; conditions: 4 l/ha (1,440 g/ha 100% acid)
Experimental: as §7

Aleppo grass = experiment: Weed control in apple culture (Example 5): Aleppo grass; format: in vivo, Sorghum halepensis; conditions: 4 l/ha (1,440 g/ha 100% acid)
Experimental: as §7

[4] = test system: Aleppo grass, Bermuda grass, Blite, Wild buckwheat, Nutgrass; experiment: Field comparison of salt, trunk mixture and Rondo on renovation ground prior to cane plantation (Example 4); format: in vivo; conditions: scale (1) out of control to (10) excellent control
Text: APPLICATION: On renovation ground
TYPE OF TREATMENT: TOTAL (PRIOR TO CANE PLANTATION)
EXPERIMENTAL DESIGN: RANDOMIZED BLOCKS
VOLUME PER HECTARE: 120 liters

[5] = test system: Blite, Pigweed, and Aleppo grass; experiment: Control of soy weeds (Example 6): Blite, Pigweed, and Aleppo grass; format: in vivo, Amaranthus quitensis, Chenopodium album, Sorghum halepense
Text: as §1, §2, §3, §4, §5, §6

Bermuda grass [6] = experiment: Field observations on activity rate: control of Bermuda grass (Example 3); format: in vivo, Cynodon dactylon; set-up: key: beginning of the effect (BE); death of the plant (DP); without symptoms (WS); conditions: visual, 5,000 cm^3/ha (SQUADRON 24% 10,000)
Experimental: (§8) Products were applied on a plot with maize stubble, preparing it for sowing wheat, where most abundant weeds were Aleppo grass (Sorghum halepense), water grass, jungle rice (Echinochloa crusgalli, Echinochloa colonum), and Bermuda grass (Cynodon dactylon).
(§9) The assessment was performed visually on 3, 4, 5, 8, and 10 days after application for jungle rice, and Aleppo grass, and 4,7,10, and 14 days for Bermuda grass, where the obtained effects were recorded and identified as follows: beginning of the effect (BE), death of the plant (DP), and without symptoms (WS).

[7] = test system: jungle rice and Aleppo grass; experiment: Field observations on activity rate: control of jungle rice and Aleppo grass (Example 3); format: in vivo; set-up: key: beginning of the effect (BE); death of the plant (DP); without symptoms (WS); conditions: visual, 5,000 cm^3/ha (SQUADRON 24% 10,000)
Experimental: as §8, §9

Soya A-6443 = experiment: Phytotoxicity on the soy crop (Example 6); format: in vivo; conditions: 2,000 and 3,000 cm^2/ha; soy at R-4/5
Text: as §1, §2, §4

[8] = Glyphosate triazolamine salt 2,000 / Rondo 2,500 cm^2/ha
[9] = Glyphosate triazolamine salt 3,000 / Rondo 5,000 cm^2/ha

O=C(O)CNCP(=O)(O)O [Glyphosate, N-(phosphonomethyl)-glycine]
solubility in water (general statement) [1]: practically non-soluble in water

Nc1nc[nH]n1 [triazolamine, 1H-1,2,4-triazol-3-yl-amine]
solubility in water (general statement) [1]: quite soluble

1H-1,2,4-triazole-3-yl-amine N-(phosphonomethyl)-glycine salt [Glyphosate triazolamine salt]
Control % after 5 days, I [2, 8]: 60% | Control % after 5 days, II [2, 8]: 50% | Control % after 5 days, III [2, 8]: 50% | Control % after 5 days, MEAN [2, 8]: 53.00% | Control % after 10 days, I [2, 8]: 75% | Control % after 10 days, II [2, 8]: 90% | Control % after 10 days, III [2, 8]: 90% | Control % after 10 days, MEAN [2, 8]: 85.00% | Control % after 15 days, I [2, 8]: 85% | Control % after 15 days, II [2, 8]: 90% | Control % after 15 days, III [2, 8]: 90% | Control % after 15 days, MEAN [2, 8]: 88.33% | Control % after 25 days, I [2, 8]: 85% | Control % after 25 days, II [2, 8]: 90% | Control % after 25 days, III [2, 8]: 90% | Control % after 25 days, MEAN [2, 8]: 88.33% | Control %, 5 DAYS, data average by assessment date [2, 8]: 53.33 B % | Control %, 10 DAYS, data average by assessment date [2, 8]: 85.00 BC % | Control %, 15 DAYS, data average by assessment date [2, 8]: 88.33 B % | Control %, 25 DAYS, data average by assessment date [2, 8]: 83.33 B % | Control % after 5 days, I [2, 9]: 70% | Control % after 5 days, II [2, 9]: 80% | Control % after 5 days, III [2, 9]: 75% | Control % after 5 days, MEAN [2, 9]: 75.00% | Control % after 10 days, I [2, 9]: 100% | Control % after 10 days, II [2, 9]: 100% | Control % after 10 days, III [2, 9]: 100% | Control % after 10 days, MEAN [2, 9]: 100.00% | Control % after 15 days, I [2, 9]: 100% | Control % after 15 days, II [2, 9]: 100% | Control % after 15 days, III [2, 9]: 100% | Control % after 15 days, MEAN [2, 9]: 100.00% | Control % after 25 days, I [2, 9]: 100% | Control % after 25 days, II [2, 9]: 100% | Control % after 25 days, III [2, 9]: 100% | Control % after 25 days, MEAN [2, 9]: 100.00% | Control %, 5 DAYS, data average by assessment date [2, 9]: 75.00 A % | Control %, 10 DAYS, data average by assessment date [2, 9]: 100.00 A % | Control %, 15 DAYS, data average by assessment date [2, 9]: 100.00 A % | Control %, 25 DAYS, data average by assessment date [2, 9]: 100.00 A % | final control over Bermuda grass and nutgrass ([2]; higher dosage treatments: Glyphosate triazolamine salt 3,000 / Rondo 5,000 cm^2/ha): total control | COUNT, averages of blocks, B (Bermuda grass) (Bermuda grass [3]; 38 days after application): 70 | COUNT, averages of blocks, B (Bermuda grass) (Bermuda grass [3]; 51 days after application): 80 | COUNT, averages of blocks, B (Bermuda grass) (Bermuda grass [3]; 99 days after application): 90 | phytotoxicity to the fruit tree (Apple, Red Delicious): No phytotoxicity to the fruit tree was observed | COUNT, averages of blocks, C (Sunchillo) (Sunchillo (White aster); 38 days after application): 75 | COUNT, averages of blocks, C (Sunchillo) (Sunchillo (White aster); 51 days after application): 90 | COUNT, averages of blocks, C (Sunchillo) (Sunchillo (White aster); 99 days after application): 98 | COUNT, averages of blocks, A (Aleppo grass) (Aleppo grass; 38 days after application): 65 | COUNT, averages of blocks, A (Aleppo grass) (Aleppo grass; 51 days after application): 85 | COUNT, averages of blocks, A (Aleppo grass) (Aleppo grass; 99 days after application): 95 | ASSAY OBSERVATIONS, control, 5 DAYS ([4]; 3 liters/ha): 4 | ASSAY OBSERVATIONS, control, 15 DAYS ([4]; 3 liters/ha): 7 | ASSAY OBSERVATIONS, control, 30 DAYS ([4]; 3 liters/ha): 9 | ASSAY OBSERVATIONS, control, 5 DAYS ([4]; 4 liters/ha): 4 | ASSAY OBSERVATIONS, control, 15 DAYS ([4]; 4 liters/ha): 7 | ASSAY OBSERVATIONS, control, 30 DAYS ([4]; 4 liters/ha): 10 | Control % after 5 DAYS, data average by assessment date [5, 8]: 58.33% | Control % after 10 DAYS, data average by assessment date [5, 8]: 100.00% | Control % after 15 DAYS, data average by assessment date [5, 8]: 100.00% | Control % after 25 DAYS, data average by assessment date [5, 8]: 100.00% | Control % after 5 days, I [5, 8]: 60% | Control % after 5 days, II [5, 8]: 55% | Control % after 5 days, III [5, 8]: 60% | Control % after 5 days, MEAN [5, 8]: 58.33% | Control % after 10 days, I [5, 8]: 100% | Control % after 10 days, II [5, 8]: 100% | Control % after 10 days, III [5, 8]: 100% | Control % after 10 days, MEAN [5, 8]: 100.00% | Control % after 15 days, I [5, 8]: 100% | Control % after 15 days, II [5, 8]: 100% | Control % after 15 days, III [5, 8]: 100% | Control % after 15 days, MEAN [5, 8]: 100.00% | Control % after 5 DAYS, data average by assessment date [5, 9]: 95.00% | Control % after 10 DAYS, data average by assessment date [5, 9]: 100.00% | Control % after 15 DAYS, data average by assessment date [5, 9]: 100.00% | Control % after 25 DAYS, data average by assessment date [5, 9]: 100.00% | Control % after 5 days, I [5, 9]: 100% | Control % after 5 days, II [5, 9]: 90% | Control % after 5 days, III [5, 9]: 95% | Control % after 5 days, MEAN [5, 9]: 95.00% | Control % after 10 days, I [5, 9]: 100% | Control % after 10 days, II [5, 9]: 100% | Control % after 10 days, III [5, 9]: 100% | Control % after 10 days, MEAN [5, 9]: 100.00% | Control % after 15 days, I [5, 9]: 100% | Control % after 15 days, II [5, 9]: 100% | Control % after 15 days, III [5, 9]: 100% | Control % after 15 days, MEAN [5, 9]: 100.00% | Control % after 10 days, I (TABLE NO. 4) [5, 8]: 100% | Control % after 10 days, II (TABLE NO. 4) [5, 8]: 100% | Control % after 10 days, III (TABLE NO. 4) [5, 8]: 100% | Control % after 10 days, MEAN (TABLE NO. 4) [5, 8]: 100.00% | Control % after 10 days, I (TABLE NO. 4) [5, 9]: 100% | Control % after 10 days, II (TABLE NO. 4) [5, 9]: 100% | Control % after 10 days, III (TABLE NO. 4) [5, 9]: 100% | Control % after 10 days, MEAN (TABLE NO. 4) [5, 9]: 100.00% | Control of Bermuda grass, 4 DAYS (Bermuda grass [6]; 4 days after application): BE | Control of Bermuda grass, 7 DAYS (Bermuda grass [6]; 7 days after application): BE | Control of Bermuda grass, 10 DAYS (Bermuda grass [6]; 10 days after application): DP | Control of Bermuda grass, 14 DAYS (Bermuda grass [6]; 14 days after application): DP | Control of jungle rice and Aleppo grass, 3 DAYS ([7]; 3 days after application): BE | Control of jungle rice and Aleppo grass, 4 DAYS ([7]; 4 days after application): BE | Control of jungle rice and Aleppo grass, 5 DAYS ([7]; 5 days after application): DP | Control of jungle rice and Aleppo grass, 8 DAYS ([7]; 8 days after application): DP | Control of jungle rice and Aleppo grass, 10 DAYS ([7]; 10 days after application): DP | phytotoxicity on soy leaves / soy crops (Soya A-6443): showed phytotoxicity problems on soy leaves; also recorded: showed phytotoxicity over soy crops
